Laboratory results published in patent publication US6011019A, “Vasoactive effects and free radical generation by β-amyloid peptides” (University of South Florida, priority 1996, dated 2000).

Key:
ET-1 = test: Endogenous ET-1 release, radioimmunoassay; parameters: species or system rat; details: competition with 125I-labeled ET-1
Experimental: (§1) In all cases the mean difference in percentage contraction in the pre- and post-contractions (before and after addition of test compound respectively) was measured, and compared between the two. Endogenous production of ET-1 was measured using an ET-1 RIA kit (Peninsula Laboratories).
To investigate the possibility that Aβ releases endogenous stores of ET-1 a radioimmunoassay in which endogenous ET-1 released into the vessel buffer, would compete with ^125 I-labeled ET-1 for binding to a specific antibody was performed. […] In addition, to examine the role played by lipid peroxidation is in the vasoconstrictive mechanism, vessels were contracted in the presence of allopurinol, which inhibits the conversion of xanthine dehydrogenase to xanthine oxidase, preventing lipid peroxidation.

Sprague-Dawley rats [1] = test: Morris water maze acquisition and memory retention during intravenous Aβ infusion; assay type: in vivo, rat; details: days 7-14
Experimental: (§2) Eleven three month old male Sprague-Dawley rats (300-350 g) were anesthetized with sodium pentobarbital (50 mg/kg, ip.) and a polyethylene cannula was inserted into the right external jugular vein to approach or enter the right atrium. […] The remaining six animals served as controls by receiving twice daily intravenous infusions of vehicle solution. Treatments were continued for 14 days, with Morris water maze "acquisition" (learning) tested during days 7-13 and water maze memory retention evaluated on day 14. Daily acquisition testing consisted of four consecutive daily trials, wherein latency to reach the submerged platform in Quadrant 2(Q2) was determined and a daily average calculated. For the memory retention trial, the submerged platform was removed and animals were placed in the quadrant opposite Q2. The percentage of time spent in the quadrant formerly containing the platform (Q2) was used as a measure of memory retention. Acquisition data was analyzed using two-way ANOVA for repeated measures and retention data was analyzed with one-way ANOVA and Student's t-test.

[2] = tested on: human aortic endothelial cel line (HAEC)
Experimental: All these cells were maintained at 37° C., under an atmosphere containing 5% CO2. For the present experiments, HAEC and BE(2)-M17 were seeded at densities of 2×10^4 cells per well in 24-23ll clusters.
The experiments were terminated one half, one, two and three hours post treatment by detachment with Trypsin/EDTA solution and followed by a toxicity assay with trypan blue exclusion. In parallel experiments, cells were attached to a round Thermanox (Nunc) at the bottom of the well, and were stopped three to 24 hours post treatment by fixation with 4% neutral formalin solution which was followed by Hematoxylin-Eosin stain to show morphology.
Morphological changes in cells were monitored throughout the course of the experiment with an inverse phase-contrast microscope. After termination of the experiments, the cells fixed on the Thermanox were subjected to routine Hematoxylin-Eosin (HE) stain. The morphological characteristics of toxic cells were observed under light microscope and typical results were recorded by photographs.
For approximate quantification of Aβ toxicity of HAEC, modified procedure for trypan blue exclusion was employed. In brief, the detached cells were resuspended with an appropriate volume of culture media, 20 μl of this cell suspension was mixed with an equivalent volume of 4% Trypan-blue solution thoroughly, and allowed to sit for two minutes after mixing. Approximately 9 μl of the mixture was transferred to a hemocytometer for cell counting. The cell viability was determined by the equation: [formula] In the case of severe toxicity, where some of the cells were lysed, the total cell numbers were adjusted by that of controls. In this experiment, counts for each sample were triplicated.

basilar artery = test: Diameter of the basilar artery in living animals after Aβ infusion; assay type: in vivo, rat
Experimental: In the experiments, the animals were infused twice daily for two weeks for an estimated final molarity of 0.5 μM. In the experiments, Aβ1-40 was used. The Aβ infused animals developed gross lung pathology. The lung capillary beds were the first to be reached by the venously infused Aβ. […] This is consistent with the conclusion that in Alzheimer's Disease, the cerebral vasculature could potentially be damaged and destroyed by circulating or locally produced Aβ.

[3] = tested on: human neuroblastoma cell line (BE(2)-M17); test: Aβ toxicity on BE(2)-M17 (trypan blue exclusion); assay type: cell-based; details: same concentrations as HAEC cultures, up to day eight; data not shown
Description: Trypan blue exclusion was used for the cell viability assay.

rat coronary arteries = test: Rat coronary artery constriction and relaxation (U46619, acetylcholine); details: for constriction of rat coronary artery by the peptide: 10^-6 M peptide
Experimental: The effects of β-amyloid peptide were examined on samples of rat coronary arteries prepared as described above. Referring specifically to FIG. 1, rat coronary arteries were treated with β-amyloid peptide (Aβ40) causing constriction of the coronary arteries.
FIG. 3 illustrates the effect of various amyloid fragments on the constriction of rat coronary arteries. Following control constriction with 10^-7 M U46619, the tissue samples were rinsed, equilibrated with buffer, and treated with 10^-6 M Aβ peptides for fifteen minutes. Following treatment with the Aβ peptides, the blood vessels were rinsed and again exposed to U46619. The values are expressed as percent of control constriction produced by U46619 alone.
The effect of pretreatment of coronary arteries with a single dose (10^-6 M) of A40 on acetylcholine induced relaxation is shown in FIG. 20. The blood vessel was preconstricted with 10^-7 M U46619 and relaxed with increasing doses of acetylcholine (10^-9 M to 10^-5 M).

Sprague-Dawley rats [4] = details: rat, in vivo
Experimental: as §2
On day 15, animals were anesthetized with sodium pentobarbital and transcardially perfused with 4% paraformaldehyde in 0.1M PBS (pH 7.4). Tissue samples from the lung, heart, kidney, liver and pancreas were collected and post-fixed in perfusate solution until histologic processing. Brains were removed and placed in perfusate for 24 hours, followed by cytoprotective storage in 30% sucrose until histologic processing. For all tissues 20 and 40 μm frozen sections were collected and stained with Mayer's Acid Hemalin followed by alkaline Congo red. Selected 20 μm brain sections were stained for glial fibrillary acidic protein (GFAP).

rat aorta = test: Enhancement of endothelin-1 (ET-1) induced vasoconstriction of rat aorta
Experimental: Normal Sprague-Dawley rats were sacrificed by decapitation, and freshly dissected rat aorta was segmented into rings and suspended in Ringers buffer using a tensiometer linked to the MacLab system. Following a two hour equilibration period, the "pretreatment" contraction was carried out. The aortic rings were contracted using a range of doses of endothelin-1 and relaxed using a single odes of acetylcholing (Ach(10^-7 M)). […] The dose of each Aβ peptide was 1 μM, with the exception of Aβ25-35 (1 μM and 5 μM), and was added ten minutes prior to the first ET-1 dose. For SOD treatment we added 150 U/ml 30 seconds before the addition of Aβ.
Endothelium was removed by gently passing a glass pipette, dipped in saline solution, through the lumen of the aortae several time, allowing the pipette to gently brush the endothelial surface. Endothelium was removed from the aortae prior to hanging in the tissue bath system. Both pre-and post treatment contractions involved a single does of ET-1 (5×10^-9 M).
as §1

Substance: Aβ1-40: Soluble Aβ containing forty amino acids; supplied by RBI and/or MD Enterprise
- release of endogenous ET-1 into the vessel buffer (ET-1): did not indicate that any unlabelled ET-1 was present
- water maze acquisition and memory retention (Sprague-Dawley rats [1]): no different from that of vehicle-infused controls
- cell viability at 32 μM [2]: significantly less cell viability compared to control
- cell viability at low concentrations [2]: not found to induce significant change of cell viability
- toxicity of several batches (RBI, MD, Sigma) [2]: almost non-toxic to HAEC
- basilar artery diameter (basilar artery): results in constriction of this artery
- toxic effect on differentiated BE(2)-M17 cells [3]: not toxic effect was noticed
- constriction of rat coronary artery by the peptide (rat coronary arteries): induce constriction of the coronary artery
- constriction of rat coronary artery by the peptide (rat coronary arteries; listed as Aβ): small but detectable contraction
- duration of constriction compared among fragments (rat coronary arteries; 10^-6 M peptides, real time recording): longest sustained constriction
- U46619 induced vasoconstriction following Aβ treatment (rat coronary arteries; 10^-7 M U46619 after 10^-6 M Aβ for fifteen minutes): significantly potentiated
- Congo red birefringence in the brains (Sprague-Dawley rats [4]): no Congo red birefringence was observed
- perivascular gliosis in GFAP stained brain sections (Sprague-Dawley rats [4]): increased perivascular gliosis was evident
- severe vascular accidents in other peripheral tissues (kidney, pancreas, heart) (Sprague-Dawley rats [4]): not, however, typically seen
- effect of Aβ on the ET-A antagonist induced decrease of ET-1 contraction (rat aorta): in part countered
- enhancement in aortae from older versus younger rats (rat aorta): trend towards greater enhancement in older rats
- enhancement of ET-1 contraction (rat aorta; peptide 1 μM (Aβ25-35 1 μM and 5 μM) ten minutes prior to first ET-1 dose): dramatically enhanced the contraction of rat aorta by ET-1
- enhancement of ET-1 contraction in the absence of endothelium (rat aorta; single dose ET-1 5×10^-9 M): enhance contraction of rat aortae to an extent not significantly different from the enhancement observed in the presence of endothelium
